Test results taken from ChEMBL document CHEMBL5055679, “Discovery of a Novel Androgen Receptor Antagonist Manifesting Evidence to Disrupt the Dimerization of the Ligand-Binding Domain via Attenuating the Hydrogen-Bonding Network Between the Two Monomers” (J Med Chem, 2021).
Active and inactive are the calls of the source. No cut-off for these calls is given here.

Legend:
Androgen receptor [1] = biological target: T1, Androgen receptor (Homo sapiens, UniProt P10275); assay: Inhibition of AR transcriptional activity in human LNCaP cells harboring ARR2PB-eGFP incubated for 72 hrs by fluorescence assay; assay type: cell-based
T1 sequence (P10275 whole entry): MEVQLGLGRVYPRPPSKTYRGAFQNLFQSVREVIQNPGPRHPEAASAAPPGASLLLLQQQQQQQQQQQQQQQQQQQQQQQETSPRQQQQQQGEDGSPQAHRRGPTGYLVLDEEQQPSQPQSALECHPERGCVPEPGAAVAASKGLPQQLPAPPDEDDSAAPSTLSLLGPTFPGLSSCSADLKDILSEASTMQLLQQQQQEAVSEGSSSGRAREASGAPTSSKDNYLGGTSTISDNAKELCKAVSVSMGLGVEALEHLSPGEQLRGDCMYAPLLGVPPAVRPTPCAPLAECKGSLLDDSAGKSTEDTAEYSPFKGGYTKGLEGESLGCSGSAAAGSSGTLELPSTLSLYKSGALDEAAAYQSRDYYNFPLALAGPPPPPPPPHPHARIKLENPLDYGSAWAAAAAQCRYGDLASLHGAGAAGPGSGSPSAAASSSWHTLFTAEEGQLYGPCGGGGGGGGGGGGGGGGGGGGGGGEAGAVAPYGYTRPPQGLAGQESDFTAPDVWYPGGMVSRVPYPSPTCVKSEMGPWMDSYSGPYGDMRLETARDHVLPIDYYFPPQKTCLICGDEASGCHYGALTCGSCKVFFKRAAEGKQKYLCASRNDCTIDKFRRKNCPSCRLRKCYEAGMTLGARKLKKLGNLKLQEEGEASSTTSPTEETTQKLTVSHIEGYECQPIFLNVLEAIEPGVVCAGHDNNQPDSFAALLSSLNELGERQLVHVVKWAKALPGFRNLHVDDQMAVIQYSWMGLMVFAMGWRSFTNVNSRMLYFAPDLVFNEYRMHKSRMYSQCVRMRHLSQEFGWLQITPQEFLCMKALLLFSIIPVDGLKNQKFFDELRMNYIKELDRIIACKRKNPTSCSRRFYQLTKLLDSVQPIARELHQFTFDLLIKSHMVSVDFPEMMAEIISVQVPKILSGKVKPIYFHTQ

NIH3T3 = assay: Cytotoxicity against mouse NIH3T3 cells assessed as reduction in cell viability incubated for 72 hrs by MTT assay; assay type: cell-based; details: nih3t3, 72 h
Homo sapiens = species: Homo sapiens; assay: Antagonist activity at human androgen receptor N756A mutant at 10 uM by dual-Glo luciferase assay; details: filed as antagonist
LNCaP = assay: Inhibition of colony formation in human LANCaP cells after 2 weeks by crystal violet staining based assay; assay type: functional, cell-based; details: dose 2-20 µM
GES1 = assay: Cytotoxicity against human GES1 cells assessed as reduction in cell viability incubated for 72 hrs by MTT assay; assay type: cell-based; details: ges1, 72 h
[2] = biological target: T2, Androgen receptor (Homo sapiens) (UniProt P10275); assay: Inhibition of AR transcriptional activity in human LNCaP cells harboring ARR2PB-eGFP at 10 uM incubated for 72 hrs by fluorescence assay; assay type: cell-based; details: filed as antagonist
T2 sequence (whole entry): T1 sequence (P10275 whole entry)

[3] = biological target: T2, Androgen receptor (Homo sapiens); assay: Binding affinity to GST-tagged AR ligand binding domain (unknown origin) at 10 uM measured after 4 hrs by fluorescence polarization assay
Androgen receptor [4] = biological target: T1, Androgen receptor; assay: Inhibition of AR transcriptional activity in human LNCaP cells harboring ARR2PB-eGFP assessed as decrease in PSA level; assay type: cell-based, LN-18
Androgen receptor [5] = biological target: T1, Androgen receptor
Description: Binding affinity to GST-tagged AR ligand binding domain (unknown origin) measured after 4 hrs by fluorescence polarization assay

Structure (SMILES)	IC50 (Androgen receptor [1]) [µM]	other results
N#Cc1cccc(/N=C/c2ccccc2O)c1	> 50	–
CNC(=O)c1ccc(N2C(=S)N(c3ccc(C#N)c(C(F)(F)F)c3)C(=O)C2(C)C)cc1F [ENZALUTAMIDE]	–	Activity (NIH3T3): Non-Toxic; Activity (Homo sapiens): Active; inhibition (LNCaP): Dose-dependent effect; Activity (GES1): Non-Toxic
O=C(Oc1ccc2c(C(F)(F)F)cc(=O)oc2c1)C1CCCCC1	> 50	–
Cn1cc(C(=O)Nc2ccc3c(C(F)(F)F)cc(=O)oc3c2)c(I)n1	> 50	–
O=c1cc(C(F)(F)F)c2ccc(OCc3ccc(C(F)(F)F)cc3)cc2o1	0.89	–
COC(=O)C(CC(C)C)Oc1ccc2c(C(F)(F)F)cc(=O)oc2c1 (stereo not drawn)	> 50	–
O=C(Nc1ccc2c(C(F)(F)F)cc(=O)oc2c1)c1ccccc1	> 50	–
O=c1cc(C(F)(F)F)c2ccc(OCc3ccccc3Br)cc2o1	0.94	–
Cn1cc(C(=O)Nc2ccc3c(C(F)(F)F)cc(=O)oc3c2)cn1	> 50	–
CC(C)c1ccc(COc2ccc3c(C(F)(F)F)cc(=O)oc3c2)cc1	9.26	–
COC(=O)c1ccc(COc2ccc3c(C(F)(F)F)cc(=O)oc3c2)cc1	30.7	–
Cc1cccc(COc2ccc3c(C(F)(F)F)cc(=O)oc3c2)c1	1.4	–
Cc1ccc(/N=C/c2ccccc2O)cc1Br	> 50	–
Cc1ccc(OC(=O)Nc2ccc3c(C(F)(F)F)cc(=O)oc3c2)c(C)c1	> 50	–
O=C(Nc1ccc2c(C(F)(F)F)cc(=O)oc2c1)c1cccc(Cl)c1	> 50	–
COc1ccc(COc2ccc3c(C(F)(F)F)cc(=O)oc3c2)cc1	1.62	–
O=C(Nc1ccc2c(C(F)(F)F)cc(=O)oc2c1)c1ccccc1F	> 50	–
O=c1cc(C(F)(F)F)c2ccc(OCc3cccc(Br)c3)cc2o1	2.28	–
O=c1cc(C(F)(F)F)c2ccc(OCc3ccc(F)cc3)cc2o1	0.47	–
CC(C(=O)Nc1ccccc1Cl)c1ccc(-c2ccccc2)c(F)c1 (stereo not drawn)	–	inhibition [2]: 40%; Activity [3]: inactive
O=c1cc(C(F)(F)F)c2ccc(OCc3c(F)cccc3Cl)cc2o1	0.78	–
Cc1ccc(NCc2ccccc2OCc2cccc3ccccc23)cc1	–	inhibition [2]: 40%; Activity [3]: inactive
O=c1cc(C(F)(F)F)c2ccc(OCc3cccnc3)cc2o1	> 50	–
Cn1cc(C(=O)Nc2ccc3c(C(F)(F)F)cc(=O)oc3c2)c(Br)n1	> 50	–
CC(=O)c1ccc(COc2ccc3c(C(F)(F)F)cc(=O)oc3c2)cc1	> 50	–
Oc1ccccc1/C=N/c1ccc(Cl)c(Cl)c1	> 50	–
Cc1ccc(COc2ccc3c(C(F)(F)F)cc(=O)oc3c2)cc1	0.61	–

Structure (SMILES)	IC50 (Androgen receptor [1]) [µM]	other results
O=c1cc(C(F)(F)F)c2ccc(/N=C/c3ccccc3O)cc2o1	5.57	inhibition [2]: 40%; Activity ([3]; filed as antagonist): Active; IC50 (Androgen receptor [4]): 3.71 µM; IC50 (Androgen receptor [5]): 1.66 µM
O=c1cc(C(F)(F)F)c2ccc(OCc3ccccc3Cl)cc2o1	0.41	–
O=c1cc(C(F)(F)F)c2ccc(OCc3ccccc3F)cc2o1	0.92	–
O=c1cc(C(F)(F)F)c2ccc(OCc3ccc(OC(F)(F)F)cc3)cc2o1	25.1	–
Oc1ccccc1/C=N/c1ccc2oc(-c3ccccc3)nc2c1	> 50	–
O=c1cc(C(F)(F)F)c2ccc(OCc3ccccc3)cc2o1	1.18	–
O=c1cc(C(F)(F)F)c2ccc(OCc3cc4c(cc3Cl)OCO4)cc2o1	1.47	–
O=C(c1ccccc1)c1ccc(/N=C/c2ccccc2O)cc1	> 50	–
O=c1cc(C(F)(F)F)c2ccc(OCc3ccc4ccccc4c3)cc2o1	> 50	–
O=c1cc(C(F)(F)F)c2ccc(OCc3ccc4c(c3)OCO4)cc2o1	9.37	–
CC(O)c1cc(C(=O)N[C@@H](C)Cn2ccc(-c3ccc(C#N)c(Cl)c3)n2)n[nH]1 (stereo partly drawn)	–	Activity (Homo sapiens): Active
O=c1cc(C(F)(F)F)c2ccc(OCc3ccccn3)cc2o1	> 50	–
O=C(Nc1ccc2c(C(F)(F)F)cc(=O)oc2c1)c1nc2ncccn2n1	> 50	–
O=c1cc(C(F)(F)F)c2ccc(OCc3ccncc3)cc2o1	1.9	–
Cc1cccc(C(=O)Nc2ccc3c(C(F)(F)F)cc(=O)oc3c2)c1	> 50	–
CNC(=O)c1ccc(N2C(=S)N(c3cnc(C#N)c(C(F)(F)F)c3)C(=O)C23CCC3)cc1F	–	Activity (Homo sapiens): Active
O=c1cc(C(F)(F)F)c2ccc(OCc3ccc(-c4ccccc4)cc3)cc2o1	> 50	–
O=C(Nc1ccc2c(C(F)(F)F)cc(=O)oc2c1)c1ccccc1Cl	> 50	–
O=C1C2CC=CCC2C(=O)N1c1cccc(C(F)(F)F)c1 (stereo not drawn)	–	inhibition [2]: 40%; Activity ([3]; filed as antagonist): Active
NC(=O)c1ccc(COc2ccc3c(C(F)(F)F)cc(=O)oc3c2)cc1	> 50	–
CCn1cc(C(=O)Nc2ccc3c(C(F)(F)F)cc(=O)oc3c2)c(C)n1	> 50	–
CCOC(=O)C(CC)Oc1ccc2c(C(F)(F)F)cc(=O)oc2c1 (stereo not drawn)	> 50	–
COc1ccc([N+](=O)[O-])cc1COc1ccc2c(C(F)(F)F)cc(=O)oc2c1	> 50	–
C[C@H](Oc1cc(Cl)ccc1Cl)C(=O)Nc1ccc2c(C(F)(F)F)cc(=O)oc2c1	> 50	–
O=c1cc(C(F)(F)F)c2ccc(OCc3ccc(Cl)cc3)cc2o1	1.04	–
O=c1cc(C(F)(F)F)c2ccc(OCc3ccc([N+](=O)[O-])cc3)cc2o1	> 50	–
